Key:
[1] = tested on: inflammatory responses elicited by topically applied phorbol myristate acetate (PMA) or topically applied archidonic acid (AA) in mouse ear; assay: Topical mouse ear assay (TME); assay type: in vivo, mice
Experimental: The topical mouse ear assay (TME) was used to evaluate the novel compounds of the present invention for its effect on inflammatory responses elicited by topically applied phorbol myristate acetate (PMA) or topically applied archidonic acid (AA).
TABLE I Topical Mouse Ear Assay
Method: The right ears of mice (5 mice per group) were treated topically with either […] or 1000 μg AA alone or with the test compound in 25 μl of vehicle. The vehicle was water/pyridine/acetone (1:2:97). A control group of mice received the vehicle only. The mice were allowed food and water ad libitum during the treatment period; 2 hours for AA and 4 hours for PMA. The mice were sacrificed by cervical dislocation and a 6 mm diameter disc of tissue punched from both the treated and untreated ears. The tissue biopsies were immediately weighed and the weight increase of the treated ear relative to the weight of the untreated ear determined.
At the termination of the experiment, the amount of radioactivity in both the treated and untreated ear biopsies was determined and the increased amount of radioactivity in the treated tissue relative to the amount of radioactive in the untreated tissue determined.
As a measure of PMN infiltration, the amount of myeloperoxidase (MPO) activity in the same tissues was determined. The tissue biopsies were homogenized into 1 ml 0.5% hexadecyltrimethylammonium bromide and centrifuged for 45 min. at 1200×g. Aliquots 40 μl, of the supernatant phases were assayed for MPO activity by a colorimetric method devised by H. Dougherty for automated Titertek analysis. The MPO activity is expressed as the OD450 of the treated ear homogenate minus the OD450 of the non-treated ear homogenate.
All of the data are expressed as the mean±SEM, N=5 mice/group.

[2] = tested on: inflammatory responses elicited by topically applied phorbol myristate acetate (PMA) or topically applied archidonic acid (AA) in mouse ear; details: previously established, in words; cited from earlier work

SMILES	Edema (% inhibition) ([1]; dosage 50 μg) [%]	Edema (% inhibition) ([1]; dosage 150 μg) [%]	Edema (% inhibition) ([1]; dosage 300 μg) [%]	activity in the topical mouse ear assay [2]	Edema (% inhibition) ([1]; dosage 5 μg) [%]
OCc1ccccc1/C=C/Cc1cc2c(cc1O)CCO2 [A, 5-hydroxy-6-(2-hydroxymethylcinnamyl)-2,3-dihydrobenzofuran]	37	54	88		
COc1ccc2c(c1)c(CC(=O)O)c(C)n2C(=O)c1ccc(Cl)cc1 [Indomethacin]		51		active	
C[C@@H]1C[C@H]2[C@@H]3CCC4=CC(=O)C=C[C@]4(C)[C@@]3(F)[C@@H](O)C[C@]2(C)[C@@]1(O)C(=O)CO [Dexamethasone]				active	60

From patent US4778818A, “Substituted 2-(heteroaryl-2-propenyl)phenols useful as anti-inflammatory agents” (Merck & Co., Inc., priority 1987, dated 1988)
